The source made the active and inactive calls.
Key:
Assay type in all cases: functional
[1] = molecular target: Protein kinase C theta type (Homo sapiens, UniProt Q04759); assay: Navigating the Kinome. Panel member name: PRKCQ
[2] = molecular target: Ribosomal protein S6 kinase alpha-3 (Homo sapiens, UniProt P51812);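 further: measured within a kinome-wide profiling panel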
[3] = molecular target: Dual specificity mitogen-activated protein kinase kinase 1 (Homo sapiens, UniProt Q02750); assay: Navigating the Kinome. Panel member name: MAP2K1
[4] = molecular target: Serine/threonine-protein kinase TBK1 (Homo sapiens, UniProt Q9UHD2); assay: Navigating the Kinome. Panel member name: TBK1
[5] = molecular target: 5'-AMP-activated protein kinase catalytic subunit alpha-1 (Homo sapiens, UniProt Q13131)
[6] = molecular target: ALK tyrosine kinase receptor (Homo sapiens, UniProt Q9UM73);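 further: ALK tested as one member of a kinase panel screen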
[7] = molecular target: Tyrosine-protein kinase receptor TYRO3 (Homo sapiens, UniProt Q06418);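 further: TYRO3 value obtained as one member of a kinome-wide profiling panel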
[8] = molecular target: Tyrosine-protein kinase Lck (Homo sapiens, UniProt P06239);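 further: lck was assayed as one member of a kinase panel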
[9] = molecular target: Mitogen-activated protein kinase 8 (Homo sapiens, UniProt P45983);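 further: value comes from one member of a kinome-wide kinase profiling panel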
Aurora kinase A = Aurora kinase A (Homo sapiens, UniProt O14965);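 further: value from the Navigating the Kinome kinase panel profiling, panel entry STK6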
[10] = molecular target: Tyrosine-protein kinase BTK (Homo sapiens, UniProt Q06187)
[11] = molecular target: Mast/stem cell growth factor receptor Kit (Homo sapiens, UniProt P10721);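 further: KIT entry within a kinase panel assay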
[12] = molecular target: Serine/threonine-protein kinase PAK 4 (Homo sapiens, UniProt O96013);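 further: value obtained within a kinome profiling panel in which PAK4 was one of the panel members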
[13] = molecular target: Fibroblast growth factor receptor 1 (Homo sapiens, UniProt P11362)
[14] = molecular target: Casein kinase I isoform alpha (Homo sapiens, UniProt P48729)
[15] = molecular target: Serine/threonine-protein kinase TAO1 (Homo sapiens, UniProt Q7L7X3)
[16] = molecular target: MAP/microtubule affinity-regulating kinase 3 (Homo sapiens, UniProt P27448);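 further: MARK3 affinity measured as one member of a kinome panel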
[17] = molecular target: High affinity nerve growth factor receptor (Homo sapiens, UniProt P04629);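 further: NTRK1 tested as one member of a kinome-wide profiling panel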
[18] = molecular target: Glycogen synthase kinase-3 alpha (Homo sapiens, UniProt P49840);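 further: GSK3A result taken from a broad kinome-wide kinase panel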
[19] = molecular target: Hepatocyte growth factor receptor (Homo sapiens, UniProt P08581);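 further: kinase panel profiling across the kinome, with MET as the panel member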
Activated CDC42 kinase 1 = Activated CDC42 kinase 1 (Homo sapiens, UniProt Q07912); assay: Navigating the Kinome. Panel member name: ACK1
[20] = molecular target: Vascular endothelial growth factor receptor 2 (Homo sapiens, UniProt P35968)
[21] = molecular target: G protein-coupled receptor kinase 5 (Homo sapiens, UniProt P34947); assay: Navigating the Kinome. Panel member name: GPRK5
Sequence of G protein-coupled receptor kinase 5 (P34947 whole entry): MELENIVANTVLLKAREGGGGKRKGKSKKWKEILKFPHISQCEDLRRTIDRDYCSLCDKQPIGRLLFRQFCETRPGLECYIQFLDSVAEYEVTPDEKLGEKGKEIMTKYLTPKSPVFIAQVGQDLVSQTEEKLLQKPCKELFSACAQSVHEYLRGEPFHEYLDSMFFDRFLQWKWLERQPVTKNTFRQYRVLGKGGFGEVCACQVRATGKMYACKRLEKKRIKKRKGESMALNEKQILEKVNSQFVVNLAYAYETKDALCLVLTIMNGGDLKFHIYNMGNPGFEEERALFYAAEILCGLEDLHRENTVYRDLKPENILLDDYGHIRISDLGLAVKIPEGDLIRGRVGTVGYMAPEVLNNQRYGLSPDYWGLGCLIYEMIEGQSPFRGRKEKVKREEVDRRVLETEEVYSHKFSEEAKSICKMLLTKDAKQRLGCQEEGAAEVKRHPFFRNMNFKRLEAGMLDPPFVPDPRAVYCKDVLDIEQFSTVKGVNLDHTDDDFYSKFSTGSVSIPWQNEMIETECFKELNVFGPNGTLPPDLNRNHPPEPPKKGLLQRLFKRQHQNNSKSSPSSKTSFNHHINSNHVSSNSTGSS

[22] = molecular target: Insulin-like growth factor 1 receptor (Homo sapiens, UniProt P08069); assay: Navigating the Kinome. Panel member name: IGF1R
[23] = molecular target: Dual specificity tyrosine-phosphorylation-regulated kinase 1B (Homo sapiens, UniProt Q9Y463); assay: Navigating the Kinome. Panel member name: DYRK1B
[24] = molecular target: cAMP-dependent protein kinase catalytic subunit PRKX (Homo sapiens, UniProt P51817)
Sequence of cAMP-dependent protein kinase catalytic subunit PRKX (P51817 whole entry): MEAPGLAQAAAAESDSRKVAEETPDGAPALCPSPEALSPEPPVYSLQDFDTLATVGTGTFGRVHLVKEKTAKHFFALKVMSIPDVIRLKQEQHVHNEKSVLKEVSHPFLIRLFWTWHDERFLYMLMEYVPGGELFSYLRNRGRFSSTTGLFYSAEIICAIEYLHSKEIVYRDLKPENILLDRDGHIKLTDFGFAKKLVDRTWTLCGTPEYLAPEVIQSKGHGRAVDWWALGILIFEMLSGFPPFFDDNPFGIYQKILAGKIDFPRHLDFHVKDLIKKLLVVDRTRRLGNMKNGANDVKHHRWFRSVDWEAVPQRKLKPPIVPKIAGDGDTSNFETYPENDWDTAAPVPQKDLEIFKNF

Focal adhesion kinase 1 = Focal adhesion kinase 1 (Homo sapiens, UniProt Q05397);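 further: measured as one member of a kinome panel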
[25] = molecular target: Platelet-derived growth factor receptor alpha (Homo sapiens, UniProt P16234); assay: Navigating the Kinome. Panel member name: PDGFRA
Sequence of Platelet-derived growth factor receptor alpha (P16234 whole entry): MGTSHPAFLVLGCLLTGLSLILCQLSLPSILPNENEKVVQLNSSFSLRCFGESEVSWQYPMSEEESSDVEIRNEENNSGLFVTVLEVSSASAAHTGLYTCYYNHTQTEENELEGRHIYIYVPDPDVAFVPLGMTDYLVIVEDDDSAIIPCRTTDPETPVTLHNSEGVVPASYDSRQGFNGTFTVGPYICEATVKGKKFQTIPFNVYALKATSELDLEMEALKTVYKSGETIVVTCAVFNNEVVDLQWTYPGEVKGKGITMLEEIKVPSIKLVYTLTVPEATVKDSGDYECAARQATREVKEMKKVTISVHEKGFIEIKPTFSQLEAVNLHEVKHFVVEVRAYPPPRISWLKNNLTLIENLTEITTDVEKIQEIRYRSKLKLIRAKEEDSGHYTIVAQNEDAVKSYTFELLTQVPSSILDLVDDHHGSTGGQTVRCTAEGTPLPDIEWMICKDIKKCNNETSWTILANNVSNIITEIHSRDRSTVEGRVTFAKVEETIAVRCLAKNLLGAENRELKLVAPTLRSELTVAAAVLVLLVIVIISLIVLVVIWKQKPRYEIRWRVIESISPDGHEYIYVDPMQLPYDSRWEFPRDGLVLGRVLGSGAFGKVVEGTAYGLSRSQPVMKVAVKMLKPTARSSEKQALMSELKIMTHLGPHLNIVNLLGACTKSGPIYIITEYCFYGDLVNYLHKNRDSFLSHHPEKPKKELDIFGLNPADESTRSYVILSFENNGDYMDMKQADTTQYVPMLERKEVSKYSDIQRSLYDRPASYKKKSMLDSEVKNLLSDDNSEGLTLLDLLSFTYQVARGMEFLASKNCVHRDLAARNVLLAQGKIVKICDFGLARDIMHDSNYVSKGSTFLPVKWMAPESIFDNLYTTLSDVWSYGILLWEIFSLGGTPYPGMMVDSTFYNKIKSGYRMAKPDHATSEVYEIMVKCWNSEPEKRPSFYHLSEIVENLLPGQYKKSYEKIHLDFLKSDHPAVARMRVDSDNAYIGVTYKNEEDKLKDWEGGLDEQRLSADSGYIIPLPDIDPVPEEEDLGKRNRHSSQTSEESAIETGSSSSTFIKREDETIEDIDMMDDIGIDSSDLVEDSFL

[26] = molecular target: Leucine-rich repeat serine/threonine-protein kinase 2 (Homo sapiens, UniProt Q5S007);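 further: value from a broad kinome-wide panel profiling study in which LRRK2 was one of the kinases tested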
[27] = molecular target: Rho-associated protein kinase 1 (Homo sapiens, UniProt Q13464);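 further: measured within a broad kinome-wide panel profiling many kinases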
Sequence of Rho-associated protein kinase 1 (Q13464 whole entry): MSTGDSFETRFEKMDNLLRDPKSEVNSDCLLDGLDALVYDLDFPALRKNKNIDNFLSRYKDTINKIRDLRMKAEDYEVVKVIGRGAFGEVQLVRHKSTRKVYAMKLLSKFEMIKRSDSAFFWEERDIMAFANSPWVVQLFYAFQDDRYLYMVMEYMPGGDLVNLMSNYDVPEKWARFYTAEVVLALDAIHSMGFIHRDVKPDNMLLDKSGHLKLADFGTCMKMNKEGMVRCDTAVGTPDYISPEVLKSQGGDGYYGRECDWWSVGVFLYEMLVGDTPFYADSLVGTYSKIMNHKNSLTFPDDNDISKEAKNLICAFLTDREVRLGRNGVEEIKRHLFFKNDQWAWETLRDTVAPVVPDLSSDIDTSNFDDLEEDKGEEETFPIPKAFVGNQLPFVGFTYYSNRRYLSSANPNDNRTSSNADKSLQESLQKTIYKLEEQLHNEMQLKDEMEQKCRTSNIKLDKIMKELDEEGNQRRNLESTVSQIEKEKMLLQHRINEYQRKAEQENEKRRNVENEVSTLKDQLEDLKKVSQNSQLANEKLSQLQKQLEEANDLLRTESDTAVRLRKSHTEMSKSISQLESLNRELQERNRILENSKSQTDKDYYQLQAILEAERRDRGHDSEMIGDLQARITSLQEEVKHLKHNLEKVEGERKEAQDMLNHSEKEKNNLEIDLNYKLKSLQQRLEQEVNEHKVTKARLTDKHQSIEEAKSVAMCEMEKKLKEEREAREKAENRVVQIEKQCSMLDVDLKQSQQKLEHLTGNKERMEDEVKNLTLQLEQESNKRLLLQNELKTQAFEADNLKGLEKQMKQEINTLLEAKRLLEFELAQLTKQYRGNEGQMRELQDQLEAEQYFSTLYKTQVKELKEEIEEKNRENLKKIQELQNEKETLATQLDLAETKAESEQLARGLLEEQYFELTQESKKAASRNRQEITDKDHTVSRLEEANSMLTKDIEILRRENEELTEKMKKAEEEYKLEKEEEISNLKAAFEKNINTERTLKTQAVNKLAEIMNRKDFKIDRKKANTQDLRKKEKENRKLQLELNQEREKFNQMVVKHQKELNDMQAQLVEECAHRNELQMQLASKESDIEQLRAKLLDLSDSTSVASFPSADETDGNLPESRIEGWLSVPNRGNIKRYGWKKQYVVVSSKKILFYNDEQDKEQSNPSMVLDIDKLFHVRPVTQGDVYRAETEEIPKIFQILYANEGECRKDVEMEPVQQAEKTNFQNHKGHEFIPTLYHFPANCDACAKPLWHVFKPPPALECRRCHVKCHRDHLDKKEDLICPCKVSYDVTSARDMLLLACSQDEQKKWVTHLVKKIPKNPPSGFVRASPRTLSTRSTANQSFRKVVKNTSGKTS

[28] = molecular target: Tyrosine-protein kinase Fyn (Homo sapiens, UniProt P06241)
[29] = molecular target: Vascular endothelial growth factor receptor 1 (Homo sapiens, UniProt P17948);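 further: measured within a kinome-wide profiling panel, FLT1 as the panel member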
[30] = molecular target: Glycogen synthase kinase-3 beta (Homo sapiens, UniProt P49841);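 further: value comes from a broad kinome profiling panel, with GSK3B as the panel member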
[31] = molecular target: BDNF/NT-3 growth factors receptor (Homo sapiens, UniProt Q16620);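 further: NTRK2 measured as one member of a broad kinome-wide kinase profiling panel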
[32] = molecular target: cAMP-dependent protein kinase catalytic subunit alpha (Homo sapiens, UniProt P17612)
[33] = molecular target: Dual specificity protein kinase CLK4 (Homo sapiens, UniProt Q9HAZ1)
[34] = molecular target: Mitogen-activated protein kinase kinase kinase kinase 4 (Homo sapiens, UniProt O95819)
[35] = molecular target: Dual specificity mitogen-activated protein kinase kinase 2 (Homo sapiens, UniProt P36507); assay: Navigating the Kinome. Panel member name: MAP2K2
[36] = molecular target: Dual specificity tyrosine-phosphorylation-regulated kinase 1A (Homo sapiens, UniProt Q13627);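 further: measured against DYRK1A as one member of a broad kinome profiling panel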
[37] = molecular target: Inhibitor of nuclear factor kappa-B kinase subunit epsilon (Homo sapiens, UniProt Q14164); assay: Navigating the Kinome. Panel member name: IKBKE
[38] = molecular target: Mitogen-activated protein kinase 10 (Homo sapiens, UniProt P53779); assay: Navigating the Kinome. Panel member name: MAPK10
[39] = molecular target: Calcium/calmodulin-dependent protein kinase type II subunit alpha (Homo sapiens, UniProt Q9UQM7); assay: Navigating the Kinome. Panel member name: CAMK2A
[40] = molecular target: Leukocyte tyrosine kinase receptor (Homo sapiens, UniProt P29376); assay: Navigating the Kinome. Panel member name: LTK
Sequence of Leukocyte tyrosine kinase receptor (P29376 whole entry): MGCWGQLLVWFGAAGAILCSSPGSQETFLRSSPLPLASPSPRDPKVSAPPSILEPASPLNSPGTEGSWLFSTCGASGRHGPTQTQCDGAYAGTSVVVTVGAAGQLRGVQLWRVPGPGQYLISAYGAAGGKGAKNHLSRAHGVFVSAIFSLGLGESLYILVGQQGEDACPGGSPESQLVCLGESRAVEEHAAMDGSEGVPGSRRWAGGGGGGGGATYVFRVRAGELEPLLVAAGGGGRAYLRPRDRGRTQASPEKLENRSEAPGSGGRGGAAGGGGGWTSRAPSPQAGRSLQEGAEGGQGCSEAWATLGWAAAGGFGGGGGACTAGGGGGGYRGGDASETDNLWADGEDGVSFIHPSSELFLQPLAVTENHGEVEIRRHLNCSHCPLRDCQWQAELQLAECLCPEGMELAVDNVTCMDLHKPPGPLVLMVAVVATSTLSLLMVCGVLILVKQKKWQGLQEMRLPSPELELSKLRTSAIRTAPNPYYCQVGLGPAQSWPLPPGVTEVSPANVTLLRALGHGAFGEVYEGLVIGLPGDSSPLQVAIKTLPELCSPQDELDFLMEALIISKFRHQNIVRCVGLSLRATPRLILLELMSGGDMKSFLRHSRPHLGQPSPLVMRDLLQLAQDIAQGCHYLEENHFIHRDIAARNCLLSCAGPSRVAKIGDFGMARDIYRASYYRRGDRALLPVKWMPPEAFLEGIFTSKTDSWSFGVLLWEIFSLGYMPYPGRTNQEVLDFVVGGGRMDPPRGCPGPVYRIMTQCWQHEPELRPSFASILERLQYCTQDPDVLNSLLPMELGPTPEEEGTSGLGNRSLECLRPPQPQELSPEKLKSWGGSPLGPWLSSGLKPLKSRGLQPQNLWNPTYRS

Sequence of Protein kinase C theta type (Q04759 whole entry): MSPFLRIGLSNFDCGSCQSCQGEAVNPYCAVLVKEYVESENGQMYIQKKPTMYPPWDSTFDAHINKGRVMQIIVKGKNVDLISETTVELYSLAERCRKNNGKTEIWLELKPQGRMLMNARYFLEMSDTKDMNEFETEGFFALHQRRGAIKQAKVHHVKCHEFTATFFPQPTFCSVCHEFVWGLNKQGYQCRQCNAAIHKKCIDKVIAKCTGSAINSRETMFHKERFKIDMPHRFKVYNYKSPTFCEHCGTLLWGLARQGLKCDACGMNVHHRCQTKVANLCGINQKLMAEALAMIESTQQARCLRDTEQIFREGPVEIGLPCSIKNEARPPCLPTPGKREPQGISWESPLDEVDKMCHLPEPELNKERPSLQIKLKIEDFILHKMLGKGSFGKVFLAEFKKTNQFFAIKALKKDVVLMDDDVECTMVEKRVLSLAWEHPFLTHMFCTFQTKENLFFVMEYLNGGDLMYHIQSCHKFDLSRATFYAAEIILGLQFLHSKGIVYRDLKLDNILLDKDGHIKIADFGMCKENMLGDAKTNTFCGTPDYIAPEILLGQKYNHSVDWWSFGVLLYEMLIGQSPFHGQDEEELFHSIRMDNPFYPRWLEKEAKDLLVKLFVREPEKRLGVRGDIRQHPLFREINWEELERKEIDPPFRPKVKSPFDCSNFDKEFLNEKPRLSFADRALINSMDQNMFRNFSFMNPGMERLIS

For `NC(=O)c1ccc(-c2nc(-c3ccc4c(c3)OCO4)c(-c3ccccn3)[nH]2)cc1` [SB-431542], the Ki [1] was > 2.51 µM (inactive), the Ki [2] was > 3.98 µM (inactive) and the Ki [3] was > 3.16 µM (inactive). For the same compound, the Ki [4] was > 3.16 µM (inactive), the Ki [5] was > 3.16 µM (inactive) and the Ki [6] was > 6.31 µM (inactive). For the same compound, the Ki [7] was > 3.16 µM (inactive), the Ki [8] was > 6.31 µM (inactive) and the Ki [9] was > 5.01 µM (inactive). The Ki (Aurora kinase A) was > 1.58 µM (inactive), the Ki [10] was > 6.31 µM (inactive) and the Ki [11] was > 6.31 µM (inactive). The Ki [12] was > 5.01 µM (inactive), the Ki [13] was > 3.98 µM (inactive) and the Ki [14] was 0.1 µM (active). The Ki [15] was > 2.51 µM (inactive), the Ki [16] was > 5.01 µM (inactive) and the Ki [17] was > 3.16 µM (inactive). For the same compound, the Ki [18] was > 3.98 µM (inactive), the Ki [19] was > 2.51 µM (inactive) and the Ki (Activated CDC42 kinase 1) was > 3.98 µM (inactive). For the same compound, the Ki [20] was > 2.51 µM (inactive), the Ki [21] was > 3.98 µM (inactive) and the Ki [22] was > 2.51 µM (inactive). The Ki [23] was > 2.51 µM (inactive), the Ki [24] was > 3.16 µM (inactive) and the Ki (Focal adhesion kinase 1) was > 6.31 µM (inactive). For the same compound, the Ki [25] was > 2.51 µM (inactive), the Ki [26] was > 2.51 µM (inactive) and the Ki [27] was > 3.98 µM (inactive). The Ki [28] was > 6.31 µM (inactive), the Ki [29] was > 3.98 µM (inactive) and the Ki [30] was > 3.98 µM (inactive). The Ki [31] was > 3.98 µM (inactive), the Ki [32] was > 1.26 µM (inactive) and the Ki [33] was > 2.51 µM (inactive). For the same compound, the Ki [34] was > 5.01 µM (inactive), the Ki [35] was > 3.98 µM (inactive) and the Ki [36] was > 2 µM (inactive). The Ki [37] was > 3.16 µM (inactive), the Ki [38] was > 3.16 µM (inactive) and the Ki [39] was > 7.94 µM (inactive). For the same compound, the Ki [40] was > 2.51 µM (inactive).

— ChEMBL document CHEMBL1201862, “PubChem BioAssay data set” (2004)
